This is an account of results in patent US20160074428A1, “COMPOSITIONS AND METHODS FOR THE TREATMENT OF HUMAN IMMUNODEFICIENCY VIRUS INFECTION” (THE CHILDREN'S HOSPITAL OF PHILADELPHIA, priority 2013, published 2016).

The target of one assay is T1, NK1R (Homo sapiens, UniProt P25103).
T1 construct: endogenous in cells; host or cells: freshly isolated human blood monocytes (gated within PBMC)
Briefly: Intracellular calcium measurement by flow cytometry (Fluo-4/Fura-red ratio) in monocytes. The format is cell-based. How it is done:
(§1) Intracellular calcium measurements. Freshly isolated monocytes were washed in Hank's balanced salt solution (HBSS) containing 1 mM calcium chloride then loaded with Fluo-4 AM (2 μM) and Fura-red AM (2 μM). Intracellular calcium recordings were performed using the Accuri C6 Analyzer (BD Biosciences, San Jose, Calif.). Fluorescence intensities were recorded in FL1-A (Fluo-4 AM) and FL3-A (Fura-red AM) channels. Intracellular calcium measurements were quantified by calculating the ratio between FL1-A/FL3-A values as a derived parameter in FlowJo 7.6.5 for Windows (Treestar Inc., Ashland, Oreg.) as previously described (1).
Gating on lymphocyte and monocyte populations was performed based of light scattering properties of the cells (FIG. 1A).
A general note: Calcium assays in cells follow changes in intracellular calcium, usually with a dye or a luminescent sensor.

The next assay concerns HIV-Bal. Briefly: HIV-Bal infection of macrophages, HIV gag mRNA by real time RT-PCR. It counts as cell-based, HIV-1. The conditions noted are these: 0, 2, 10 or 20 μg/ml HbHp complex, 7 days postinfection. How it is done: HIV infection. Macrophages were incubated with HIV-Bal virus overnight, and then extensively washed to remove unbound virus. The culture medium and the reagents were replaced twice weekly. At days 5, 7, 9 and 11 post HIV infection, cellular RNA was extracted from the MDM for assessment of HIV gag mRNA expression using real time RT-PCR assays.
RNA Extraction and Real-Time RT PCR Assays. Total RNA was extracted from macrophages using RNeasy kit (Qiagen), and the potential DNA contamination was eliminated by on-column DNase digestion as instructed by the manufacturer (Qiagen). RNA concentration was determined by Qubit fluorometer using Quant-iT RNA Assay kit (Invitrogen, Eugene, Oreg.).
Total RNA (1 μg) was reverse transcribed using AffinityScript QPCR cDNA Synthesis kit ([…], Cedar Creek, Tex.) with random primer as instructed by the manufacture. Reverse transcriptase negative controls were used in order to control for genomic DNA contamination. 1 μl of the resulting cDNA was used as a template for real-time PCR amplification.
RNA Interference (RNAi). RNAi CD163 pool and control RNAi was purchased from Santa Cruz Biotechnologies. The siRNAs pool was transfected into macrophages with Lipofectamine RNAimax (Invitrogen), following the manufacturer's protocol. Experiments were carried out 48 h after transfection.
For orientation: Real-time PCR tracks product formation cycle by cycle.

The subject of assay [1] is HIV-GFP-tagged reporter virus pSF162R3 Nef+. Kind of assay: Infection of macrophages with HIV-GFP-tagged reporter virus, GFP fluorescence. The format is cell-based. The conditions noted are these: 0, 2, 10 or 50 μg/ml HbHp complex, 7 days postinfection. As to the method: FIG. 5. Effect of HbHp-complexes on HIV infection in macrophages. Hb and Hp were added to macrophages in a 1:1 molar ratio and incubated for 2 h at 37° C. a) Macrophages, treated with 0, 2, 10 or 20 μg/ml of HbHp complex and infected with HIV-BaL, were assayed 7 days postinfection for HIV GAG by real time RT PCR. b) Macrophages, treated with 0, 2, 10 or 50 μg/ml of HbHp complex and infected with HIV-GFP-tagged reported virus, were assayed 7 days postinfection for GFP fluorescence. c) Representative images of macrophages, treated with 0, 2, 10, and 50 μg/ml of HbHp complex and infected with HIV-GFP-tagged reported virus 7 days postinfection. Average results of three independent experiments are presented as mean±SD.
Virus. The M-tropic HIV-1 R5 strain Bal was obtained from the NIH AIDS Reagent Program. The HIV-GFP-tagged reporter virus pSF162R3 Nef+, was made based on HIV-SF162 strain and was a gift from Dr. Amanda Brown (John Hopkins School of Medicine, Baltimore, Md.) (45).
Microscopy. Macrophages were infected with HIV-GFP-tagged reported virus pSF162R3 Nef+. […] GFP intensity was quantified using ImageJ (National Institute of Mental Health, Bethesda, Md., USA).

For another assay, the system named is lymphocytes. Kind of assay: Intracellular calcium measurement by flow cytometry in lymphocytes. It counts as cell-based, human. Particulars: SP at concentrations as high as 30 μM; data not shown. As to the method: as §1
SP induces intracellular calcium increase in human monocytes. Our previous studies have shown that in U373MG cell NK1R stimulates the release of Ca^2+ from intracellular stores though activation of phospholipase C. To assess whether the effect of SP on monocytes is due to activation of NK1R we examined the levels of intracellular Ca^2+. We used a ratiometric calcium assay, where PBMC were loaded with Fluo-4 and Fura-red, then stimulated again with SP or appropriate agonist. Gating on lymphocyte and monocyte populations was performed based of light scattering properties of the cells (FIG. 1A). […] This pharmacology profile of NK1R, with high concentrations of SP required to elicit a response is consistent with the truncated form of NK1R.

In a further assay the test system is CD163. Briefly: CD163 measurement by flow cytometry on monocytes/macrophages. The format is cell-based, human. The conditions noted are these: for CD163 expression, time course: 10 μM SP. How it is done: CD163 measurement by flow cytometry. For time-course experiments, freshly isolated monocytes were stimulated with either IL-10 (20 ng/ml) or SP (10 μM) and after 0, 2, 4 and 6 days of culture the cells were detached and the expression of membrane-bound CD163 was quantified by flow cytometry. For the dose-response experiments, freshly isolated monocytes were stimulated with either IL-10 (0.2, 0.6, 2, 6 or 20 ng/ml) or SP (0.3, 1, 3, 10 or 30 μM) and after 4 days of culture the cells were detached for CD163 measurement. Macrophages were detached using Lidocaine (4 mg/ml) in HBSS with EDTA (1 mM) for 30 minutes at 37° C. Cells were labeled with anti-human CD163 antibody (clone R-20) conjugated with PE (Trillium Diagnostics, Scarborough, Me.) for 30 minutes at room temperature. After labeling, cells were washed and resuspended in Hank's balanced salt solution (HBSS). Flow cytometry experiments were performed on an Accuri C6 analyzer (BD Biosciences, San Jose, Calif.) in the Flow Cytometry Core Laboratory of the Children's Hospital of Philadelphia Research Institute.

The next assay deals with HIV. Particulars: cited from earlier work.

No end group written: not given here.

T1 sequence (P25103 1-311): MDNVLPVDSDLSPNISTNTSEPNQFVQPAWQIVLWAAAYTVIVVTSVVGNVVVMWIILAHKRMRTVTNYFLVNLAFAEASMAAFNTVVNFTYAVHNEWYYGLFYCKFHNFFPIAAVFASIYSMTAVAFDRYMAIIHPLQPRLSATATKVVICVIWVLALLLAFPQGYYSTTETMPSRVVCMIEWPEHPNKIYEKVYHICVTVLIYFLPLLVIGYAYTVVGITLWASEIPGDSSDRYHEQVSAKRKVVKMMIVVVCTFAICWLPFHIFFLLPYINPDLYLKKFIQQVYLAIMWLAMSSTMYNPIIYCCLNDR

For the molecule `C[C@@H](O[C@H]1OCCN(Cc2n[nH]c(=O)[nH]2)[C@H]1c1ccc(F)cc1)c1cc(C(F)(F)F)cc(C(F)(F)F)c1` [Aprepitant, aprepitant], the “effect on SP induced calcium response” value at NK1R (pre-treatment with 50 μM for 15 minutes before adding 10 μM SP) was “abolished SP induced calcium response”.
Consider “Hb-Hp complexes: hemoglobin-haptoglobin complexes, Hb and Hp added in a 1:1 molar ratio; ligand of CD163”, for which the “HIV infection of macrophages (HIV GAG, RT PCR)” value in the assay on HIV-Bal is on record as “concentration-dependent decrease”. Further, the “number of infected cells/well (GFP fluorescence)” value in assay [1] was “concentration-dependent decrease”.
For the molecule Neurokinin B [NKB], the “Ca2+ response to agonist” value with NK1R (10 μM agonist, SP induced a response in the same samples) was “failed to induce Ca^2+ responses”.
Take “Substance P (RPKPQQFFGLM; ends and bridges not checked; UniProt P20366 58-68, looked up) [SP, undecapeptide neurotransmitter of the tachykinin family; purchased from Sigma]”: the “intracellular Ca2+ increase in lymphocytes” value in the assay with lymphocytes was “did not induce intracellular Ca^2+ increase”. Also, the “extent of CD163 induction compared with IL-10” value with CD163 was “lower extent than that induced by IL-10”. For the same molecule, the “CD163 expression, time course” value in the assay with CD163 (4 days) is reported as “significant increase”; in the assay on CD163 (6 days), “did not persist”. Also, the “CD163 expression, dose response” value in the assay on CD163 (SP 0.3-10 μM, 4 days) is listed as “significant increase”. The “levels of membrane bound CD163 with increasing doses” value in the assay on CD163 (monocytes in AIM V medium without FBS, 4 days after treatment) is “progressively higher”. Also, in the assay with HIV, the “effect on HIV infection of MDM” value is recorded as “promotes HIV infection”.

B1: interleukin-10 (protein, UniProt P22301 19-178, looked up)
Interleukin-10: SPGQGTQSENSCTHFPGNLPNMLRDLRDAFSRVKTFFQMKDQLDNLLLKESLLEDFKGYLGCQALSEMIQFYLEEVMPQAENQDPDIKAHVNSLGENLKTLRLRLRRCHRFLPCENKSKAVEQVKNAFNKLQEKGIYKAMSEFDIFINYIEAYMTMKIRN
notes: anti-inflammatory mediator that upregulates CD163 expression
For the molecule B1, the “CD163 expression, dose response” value with CD163 (0.2 ng/ml IL-10, 4 days of culture) is on record as “significant increase”; with CD163 (20 ng/ml IL-10, 4 days of culture), “had not induced maximal increase”. Also, the “expression of CD163, time course” value is listed as “significant increase” in the assay with CD163 (20 ng/ml IL-10, 2 days); “higher” in the assay with CD163 (20 ng/ml IL-10, days 4 and 6, compared with day 2).
